Reference: PubChem BioAssay (NCI)
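Briefly, cells in 96-well plates were exposed to five compound concentrations for 48 h, and endpoints were estimated by linear interpolation. Definition used: TGI = concentration required for complete inhibition of growth.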

How the values were obtained:
Assay in all cases: inhibition of tumour cell growth, NCI panel, 48 h
[1] = test system: CCRF-CEM leukemia
[2] = test system: HCC-2998 colon
[3] = test system: OVCAR-5 ovarian
[4] = test system: K-562 leukemia
[5] = test system: MOLT-4 leukemia
[6] = test system: HCT-15 colon
[7] = test system: T-47D breast
[8] = test system: SK-MEL-28 melanoma
[9] = test system: M14 melanoma
[10] = test system: NCI-H522 lung
[11] = test system: RPMI-8226 leukemia
[12] = test system: MDA-N
[13] = test system: A498 renal
[14] = test system: SK-MEL-5 melanoma
[15] = test system: SW-620 colon
[16] = test system: SR leukemia
[17] = test system: OVCAR-8 ovarian
[18] = test system: SK-OV-3 ovarian
[19] = test system: SF-295 CNS
[20] = test system: HOP-92 NSCLC
[21] = test system: SN12C renal
[22] = test system: HL-60(TB) leukemia
[23] = test system: OVCAR-4 ovarian
[24] = test system: MDA-MB-231 breast
[25] = test system: UO-31 renal
[26] = test system: NCI/ADR-RES ovarian
[27] = test system: NCI-H460 lung
[28] = test system: ACHN renal
[29] = test system: SF-268 CNS
[30] = test system: CAKI-1 renal
[31] = test system: UACC-62 melanoma
[32] = test system: DU-145 prostate
[33] = test system: HS 578T breast
[34] = test system: 786-0 renal
[35] = test system: PC-3 prostate
[36] = test system: HOP-62 NSCLC
[37] = test system: HCT-116 colon
[38] = test system: SNB-19 CNS
[39] = test system: LOX IMVI melanoma
[40] = test system: NCI-H23 lung
[41] = test system: U251 CNS
[42] = test system: SF-539 CNS
[43] = test system: KM12 colon
[44] = test system: A549 NSCLC
[45] = test system: TK-10 renal
[46] = test system: MDA-MB-435
[47] = test system: MALME-3M melanoma
[48] = test system: RXF 393 renal
[49] = test system: OVCAR-3 ovarian
[50] = test system: NCI-H226 lung
[51] = test system: SNB-75 CNS
[52] = test system: COLO 205 colon
[53] = test system: EKVX NSCLC
[54] = test system: UACC-257 melanoma
[55] = test system: MCF7 breast
[56] = test system: SK-MEL-2 melanoma
[57] = test system: HT29 colon
[58] = test system: BT-549 breast
[59] = test system: IGROV1 ovarian

CC(=O)SC(C[N+](=O)[O-])c1ccccc1 (centres undefined)
TGI [1]: 19.9 µM
TGI [2]: 10.6 µM
TGI [3]: 9.11 µM
TGI [4]: 12.8 µM
TGI [5]: 5.36 µM
TGI [6]: 4.85 µM
TGI [7]: > 71.3 µM
TGI [8]: 11.1 µM
TGI [9]: 17.2 µM
TGI [10]: 31 µM
TGI [11]: 5.18 µM
TGI [12]: 9.77 µM
TGI [13]: 20.7 µM
TGI [14]: 8.77 µM
TGI [15]: 5.6 µM
TGI [16]: 6.85 µM
TGI [17]: 26 µM
TGI [18]: 26.2 µM
TGI [19]: 15.9 µM
TGI [20]: 30.4 µM
TGI [21]: 27.3 µM
TGI [22]: 18.9 µM
TGI [23]: 5.46 µM
TGI [24]: 27 µM
TGI [25]: 5.37 µM
TGI [26]: 55.1 µM
TGI [27]: 24.8 µM
TGI [28]: 8.94 µM
TGI [29]: 22.6 µM
TGI [30]: 29.3 µM
TGI [31]: 28.5 µM
TGI [32]: > 46.7 µM
TGI [33]: 23.4 µM
TGI [34]: 23.7 µM
TGI [35]: 25.7 µM
TGI [36]: 33 µM
TGI [37]: 4.48 µM
TGI [38]: 30.9 µM
TGI [39]: 3.34 µM
TGI [40]: 38.3 µM
TGI [41]: 13.1 µM
TGI [42]: 5.26 µM
TGI [43]: 22.6 µM
TGI [44]: 14 µM
TGI [45]: 23.6 µM
TGI [46]: 6.08 µM
TGI [47]: 35.9 µM
TGI [48]: 4.01 µM
TGI [49]: 20.7 µM
TGI [50]: 5.72 µM
TGI [51]: 7.65 µM
TGI [52]: 7.47 µM
TGI [53]: 16 µM
TGI [54]: 24.5 µM
TGI [55]: 4.35 µM
TGI [56]: 50.3 µM
TGI [57]: 4.22 µM
TGI [58]: 5.19 µM
TGI [59]: 5.02 µM
